The values below come from the supplement of paper PMC10883282.

Where a name gives a salt, the structure may show the parent alone. ± gives the standard deviation of the averaged measurements.

The test system of this assay is RD-ES. The assay is described as follows: relative viability vs DMSO control (72 h) (fraction); higher = more viable cells. In outline:
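Serially diluted compound, 2.5 µl from source plates spanning 10 mM to 0.0002 mM, was added 24 h after sarcoma cell lines were seeded in 384-well plates at densities targeting 80–90% confluence. Plates then sat 72 h at 37 °C, 5% CO2, with 0.1% DMSO vehicle and a 5 µM positive control. Relative viability came from ATPLite as percent growth, averaged over up to triplicate wells, and was rescaled with 1 as full and 0 as none.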

Turning to `COc1cccc2c1C(=O)c1c(O)c3c(c(O)c1C2=O)C[C@@](O)(C(=O)CO)C[C@@H]3O[C@H]1C[C@H](N)[C@H](O)[C@H](C)O1` [Doxorubicin Hydrochloride], the relative viability reads like this: (0.00017 µM) 1.01 ± 0.032; (0.00051 µM) 1.03 ± 0.037; (0.00152 µM) 1.02 ± 0.014; (0.00457 µM) 1 ± 0.025; (0.01372 µM) 0.749 ± 0.0091; (0.04115 µM) 0.374 ± 0.014. This compound also returned a relative viability (0.1235 µM) of 0.155 ± 0.011; a relative viability (0.3704 µM) of 0.036 ± 0.0064; a relative viability (1.111 µM) of 0.0178 ± 0.0034; a relative viability (3.333 µM) of 0.00453 ± 5.8e-05; a relative viability (10 µM) of 0.0075 ± 0.00089.

For `CO[C@H]1C[C@@H]2CC[C@@H](C)[C@@](O)(O2)C(=O)C(=O)N2CCCC[C@H]2C(=O)O[C@H]([C@H](C)C[C@@H]2CC[C@@H](OP(C)(C)=O)[C@H](OC)C2)CC(=O)[C@H](C)/C=C(\C)[C@@H](O)[C@@H](OC)C(=O)[C@H](C)C[C@H](C)/C=C/C=C/C=C/1C` [Ridaforolimus], the relative viability stood at 0.988 ± 0.013 (0.00017 µM); 0.978 ± 0.019 (0.00051 µM); 0.893 ± 0.039 (0.00152 µM); 0.804 ± 0.0091 (0.00457 µM); 0.754 ± 0.019 (0.01372 µM); 0.71 ± 0.011 (0.04115 µM). The compound also came in with a relative viability (0.1235 µM) of 0.6822 ± 0.0053; a relative viability (0.3704 µM) of 0.674 ± 0.0087; a relative viability (1.111 µM) of 0.693 ± 0.025; a relative viability (3.333 µM) of 0.66 ± 0.026; a relative viability (10 µM) of 0.627 ± 0.021.

`COc1cc2nccc(Oc3ccc(NC(=O)Nc4cc(C)on4)c(Cl)c3)c2cc1OC` [Tivozanib] returned a relative viability (0.00017 µM) of 0.987 ± 0.038; a relative viability (0.00051 µM) of 1.01 ± 0.026; a relative viability (0.00152 µM) of 0.9944 ± 0.0095; a relative viability (0.00457 µM) of 1.02 ± 0.038; a relative viability (0.01372 µM) of 1.02 ± 0.022; a relative viability (0.04115 µM) of 1.03 ± 0.02. The relative viability is, setting by setting: (0.1235 µM) 1 ± 0.024; (0.3704 µM) 1.02 ± 0.018; (1.111 µM) 0.981 ± 0.031; (3.333 µM) 0.912 ± 0.036; (10 µM) 0.768 ± 0.02.

With `C[C@@H](c1ccc2nccn2c1)n1nnc2ncc(-c3cnn(C)c3)nc21` [Volitinib], the relative viability is, setting by setting: (0.00017 µM) 0.975 ± 0.017; (0.00051 µM) 1.01 ± 0.019; (0.00152 µM) 0.98 ± 0.043; (0.00457 µM) 0.998 ± 0.022; (0.01372 µM) 1 ± 0.018; (0.04115 µM) 1 ± 0.013. The relative viability was determined as 1.02 ± 0.017 (0.1235 µM); 1.03 ± 0.025 (0.3704 µM); 0.989 ± 0.062 (1.111 µM); 0.995 ± 0.064 (3.333 µM); 0.972 ± 0.081 (10 µM).

Regarding `COc1cc2c(cc1O)CCN[C@]21CS[C@@H]2c3c(OC(C)=O)c(C)c4c(c3[C@H](COC1=O)N1[C@@H]2[C@H]2c3c(cc(C)c(OC)c3O)C[C@@H]([C@@H]1O)N2C)OCO4` [Trabectedin], the relative viability runs as follows: (2 pM) 0.979 ± 0.032; (5 pM) 0.954 ± 0.052; (15 pM) 0.833 ± 0.06; (50 pM) 0.581 ± 0.008; (0.00014 µM) 0.0757 ± 0.0065; (0.00041 µM) 0.0099 ± 0.002. The relative viability is, setting by setting: (0.0012 µM) 0.00377 ± 0.00023; (0.0037 µM) 0.0027 ± 0.00085; (0.011 µM) 0.00663 ± 0.00032; (200 fM) 0.9532 ± 0.0081; (600 fM) 0.985 ± 0.056.

As for `Cc1nc(-c2cn3c(n2)-c2ccc(-c4cnn(C(C)(C)C(N)=O)c4)cc2OCC3)n(C(C)C)n1` [Taselisib], the relative viability (0.00017 µM) came to 0.992 ± 0.028; the relative viability (0.00051 µM) stood at 0.983 ± 0.033; the relative viability (0.00152 µM) amounted to 0.962 ± 0.026; the relative viability (0.00457 µM) came to 0.949 ± 0.019; the relative viability (0.01372 µM) is 0.851 ± 0.044; the relative viability (0.04115 µM) came out at 0.694 ± 0.01. The relative viability was found to be 0.556 ± 0.0063 (0.1235 µM); 0.472 ± 0.0073 (0.3704 µM); 0.426 ± 0.016 (1.111 µM); 0.347 ± 0.0097 (3.333 µM); 0.224 ± 0.0038 (10 µM).

With `COc1cc2c(Oc3ccc4[nH]c(C)cc4c3F)ncnc2cc1OCCCN1CCCC1` [Cediranib], the relative viability (0.00017 µM) stood at 0.96 ± 0.026; the relative viability (0.00051 µM) was 0.985 ± 0.038; the relative viability (0.00152 µM) was determined as 0.95 ± 0.023; the relative viability (0.00457 µM) is 0.958 ± 0.018; the relative viability (0.01372 µM) is 0.992 ± 0.023; the relative viability (0.04115 µM) was found to be 0.961 ± 0.017. Further, the relative viability by setting is: (0.1235 µM) 0.962 ± 0.01; (0.3704 µM) 0.9773 ± 0.0095; (1.111 µM) 0.887 ± 0.013; (3.333 µM) 0.971 ± 0.025; (10 µM) 0.943 ± 0.022.

Turning to `Cc1nc(NC(=O)N2CCC[C@H]2C(N)=O)sc1-c1ccnc(C(C)(C)C(F)(F)F)c1` [Alpelisib], the relative viability reads like this: (0.00017 µM) 0.955 ± 0.069; (0.00051 µM) 0.949 ± 0.05; (0.00152 µM) 0.95 ± 0.05; (0.00457 µM) 0.944 ± 0.046; (0.01372 µM) 0.894 ± 0.017; (0.04115 µM) 0.852 ± 0.028. For the same compound, the relative viability is, setting by setting: (0.1235 µM) 0.733 ± 0.025; (0.3704 µM) 0.641 ± 0.029; (1.111 µM) 0.559 ± 0.0059; (3.333 µM) 0.485 ± 0.025; (10 µM) 0.375 ± 0.009.

With `COc1cc2/c(=N/c3ccc(Br)cc3F)nc[nH]c2cc1OCC1CCN(C)CC1` [Vandetanib], the relative viability was determined as 0.944 ± 0.034 (0.00017 µM); 0.949 ± 0.031 (0.00051 µM); 0.957 ± 0.01 (0.00152 µM); 0.939 ± 0.047 (0.00457 µM); 0.927 ± 0.025 (0.01372 µM); 0.94 ± 0.041 (0.04115 µM). Also, the relative viability turned out to be 0.944 ± 0.053 (0.1235 µM); 0.922 ± 0.056 (0.3704 µM); 0.804 ± 0.054 (1.111 µM); 0.648 ± 0.029 (3.333 µM); 0.0224 ± 0.01 (10 µM).

For the compound `C[C@]1(O)C[C@@H](c2nc(-c3ccc4ccc(-c5ccccc5)nc4c3)c3c(N)nccn32)C1` [Linsitinib], the relative viability reads like this: (0.00017 µM) 0.986 ± 0.02; (0.00051 µM) 0.992 ± 0.034; (0.00152 µM) 0.982 ± 0.017; (0.00457 µM) 0.967 ± 0.015; (0.01372 µM) 0.928 ± 0.014; (0.04115 µM) 0.8432 ± 0.005. Also, the relative viability was determined as 0.661 ± 0.017 (0.1235 µM); 0.451 ± 0.028 (0.3704 µM); 0.382 ± 0.016 (1.111 µM); 0.354 ± 0.018 (3.333 µM); 0.309 ± 0.0052 (10 µM).

Regarding `C=CC(=O)N1CCC([C@@H]2CCNc3c(C(N)=O)c(-c4ccc(Oc5ccccc5)cc4)nn32)CC1` [Zanubrutinib], the relative viability was found to be 0.953 ± 0.033 (0.00017 µM); 0.956 ± 0.013 (0.00051 µM); 0.978 ± 0.025 (0.00152 µM); 0.985 ± 0.025 (0.00457 µM); 0.978 ± 0.023 (0.01372 µM); 0.943 ± 0.044 (0.04115 µM). The relative viability reads like this: (0.1235 µM) 0.921 ± 0.027; (0.3704 µM) 0.942 ± 0.046; (1.111 µM) 0.887 ± 0.053; (3.333 µM) 0.888 ± 0.07; (10 µM) 0.904 ± 0.049.

On to `Cn1cc(-c2cc3c(N4CCN(c5ncc([C@@](C)(N)c6ccc(F)cc6)cn5)CC4)ncnn3c2)cn1` [Avapritinib], for which the relative viability is, setting by setting: (0.00017 µM) 0.927 ± 0.028; (0.00051 µM) 0.928 ± 0.034; (0.00152 µM) 0.934 ± 0.015; (0.00457 µM) 0.922 ± 0.026; (0.01372 µM) 0.936 ± 0.02; (0.04115 µM) 0.932 ± 0.013. For the same compound, the relative viability came out at 0.9089 ± 0.0059 (0.1235 µM); 0.884 ± 0.025 (0.3704 µM); 0.84 ± 0.044 (1.111 µM); 0.787 ± 0.047 (3.333 µM); 0.716 ± 0.012 (10 µM).

As for `CC(=O)Nc1cccc(-n2c(=O)n(C3CC3)c(=O)c3c(Nc4ccc(I)cc4F)n(C)c(=O)c(C)c32)c1` [Trametinib], the relative viability came out at 0.979 ± 0.039 (0.00017 µM); 0.973 ± 0.036 (0.00051 µM); 0.969 ± 0.044 (0.00152 µM); 0.957 ± 0.022 (0.00457 µM); 0.973 ± 0.049 (0.01372 µM); 0.959 ± 0.037 (0.04115 µM). Also, the relative viability is, setting by setting: (0.1235 µM) 0.946 ± 0.019; (0.3704 µM) 0.975 ± 0.031; (1.111 µM) 0.978 ± 0.06; (3.333 µM) 0.957 ± 0.052; (10 µM) 0.941 ± 0.062.
